The values that follow come from patent US11225482B2, “Dihydropyrrolopyrimidines for the treatment and prophylaxis of hepatitis B virus infection” (Hoffmann-La Roche Inc., priority 2017, dated 2022).

A word on the IC50: it is the midpoint of a concentration-inhibition curve.

Assay [1] deals with HBsAg. As to the kind of experiment: HBsAg assay (CLIA) in HepG2.2.15 cells. The format is cell-based, HBV. The settings on record: Hepatitis B virus, HepG2.2.15, read-out: IC50 (HBsAg assay). As for the experimental part: (§1) HepG2.2.15 cells (Acs et al. Proc Natl Acad Sci USA, 84, (1987), 4641-4), a constitutively HBV-expressing cell line were cultured in DMEM+Glutamax-I medium (Invitrogen, Carlsbad, Calif., USA), supplemented with 10% fetal bovine serum (Invitrogen) and G418 (Invitrogen) at a final concentration of 200 mg/L and maintained in 5% CO2 at 37° C.
HepG2.2.15 cells were seeded in duplicate into white, 96-well plates at 1.5×10^4 cells/well. The cells were treated with a three-fold serial dilution series of the compounds in DMSO. The final DMSO concentration in all wells was 1% and DMSO was used as no drug control.
The HBsAg chemiluminescence immunoassay (CLIA) kit (Autobio Diagnostics Co., Zhengzhou, China, Catalog number: CL0310-2) was used to measure the levels of secreted HBV antigens semi-quantitatively. For the detection 50 μL/well culture supernatant was used and HBsAg was quantified using HBsAg chemiluminescence immunoassay (CLIA) kit (Autobio Diagnostics Co., Zhengzhou, China, Catalog number: CL0310-2), 50 μL of the supernatant was transferred to the CLIA assay plate and 50 μL of enzyme conjugate reagent was added into each well. The plates were sealed and gently agitated for 1 hour at room temperature. The supernatant-enzyme-mixture was discarded and wells were washed 6 times with 300 μL of PBS. The residual liquid was removed by plating the CLIA plate […] on absorbent tissue paper. 25 μL of substrates A and B were added to each well. Luminance was measured using a luminometer (Mithras LB 940 Multimode Microplate Reader) after 10 minutes incubation. Dose-response curves were generated and the IC50 value was extrapolated by using the E-WorkBook Suite (ID Business Solutions Ltd., Guildford, UK). The IC50 was defined as the compound concentration (or conditioned media log dilution) at which HBsAg secretion was reduced by 50% compared to the no drug control.

Assay [2] has as its system HBV DNA. Nature of the assay: HBV DNA assay (real-time qPCR/TaqMan) in HepG2.2.15 cells. It is filed as cell-based. Particulars: Hepatitis B virus, 144 h, extracellular HBV DNA in supernatant, six days after initial administration, qPCR, read-out: IC50 (Anti HBV DNA production activity). As for the experimental part: as §1
The assay employs real-time qPCR (TaqMan) to directly measure extracellular HBV DNA copy number in the cell supernatant, HepG2.2.15 cells were plated in 96-well microtiter plates before treatment with complete medium (DMEM, Glutamax, 10% FBS, 1% Penicillin/Streptomycin, 250 μg/mL Genetycin, final DMSO concentration is 1%). Only the interior wells were utilized to reduce “edge effects” observed during cell culture, the exterior wells were filled with complete medium to help minimize sample evaporation. The HepG2.2.15 cells were treated 1 h later with various concentrations of a test compound in duplicate (top concentration used at 5 μM, 2 μM or 0.5 μM according to the HBsAg IC50 observed, with ⅓ successive dilutions (total of 10 dilutions). Six days following the initial administration of the test compound, the cell culture supernatant was collected; DNA extraction was performed by automated system (Magnapure) and then used in a real-time qPCR/TaqMan assay to determine HBV DNA copy numbers. Antiviral activity was calculated from the reduction in HBV DNA levels (IC50).

Take `Cc1nc(C(=O)N2Cc3nc(-c4ncccn4)ncc3C2C)sc1C` (stereo not shown) [Example 10, (4,5-Dimethylthiazol-2-yl)-(5-methyl-2-pyrimidin-2-yl-5,7-dihydropyrrolo[3,4-d]pyrimidin-6-yl)methanone]: the values for the IC50 in assay [1] and in assay [2] were 282 nM and 67.6 nM, respectively.
With `CC1c2cnc(-c3ncccn3)nc2CN1C(=O)c1nn(C)c2ccccc12` (stereo not shown) [Example 12, (1-Methylindazol-3-yl)-(5-methyl-2-pyrimidin-2-yl-5,7-dihydropyrrolo[3,4-d]pyrimidin-6-yl)methanone], the concentration for half-maximal inhibition (IC50) in assay [1] worked out at 158 nM; in assay [2], 5.6 nM.
`CC1c2cnc(-c3ncccn3)nc2CN1C(=O)c1ccc([N+](=O)[O-])s1` (stereo not shown) [Example 18, (5-Methyl-2-pyrimidin-2-yl-5,7-dihydropyrrolo[3,4-d]pyrimidin-6-yl)-(5-nitro-2-thienyl)methanone]: the 50% inhibitory concentration (IC50) in assay [1] was 724 nM.
On the same count and under the same terms, the figure for `CC1c2cnc(-c3ncccn3)nc2CN1C(=O)c1ccc2ccccc2c1` (stereo not shown) [Example 19, (5-Methyl-2-pyrimidin-2-yl-5,7-dihydropyrrolo[3,4-d]pyrimidin-6-yl)-(2-naphthyl)methanone] is 7860 nM.
On the same count and under the same terms, under `CC1c2cnc(-c3ncccn3)nc2CN1C(=O)c1cn2ccccc2n1` (stereo not shown) [Example 20, Imidazo[1,2-a]pyridin-2-yl-(5-methyl-2-pyrimidin-2-yl-5,7-dihydropyrrolo[3,4-d]pyrimidin-6-yl)methanone] stands 502 nM.
For the compound `Cc1c(C(=O)N2Cc3nc(-c4ncccn4)ncc3C2C)oc2ccccc12` (stereo not shown) [Example 21, (3-Methylbenzofuran-2-yl)-(5-methyl-2-pyrimidin-2-yl-5,7-dihydropyrrolo[3,4-d]pyrimidin-6-yl)methanone], the values for the IC50 in assay [1] and in assay [2] were 219 nM and 26.2 nM, respectively.
As for `COc1cncc(C(=O)N2Cc3nc(-c4ncccn4)ncc3C2C)n1` (stereo not shown) [Example 22, (6-Methoxypyrazin-2-yl)-(5-methyl-2-pyrimidin-2-yl-5,7-dihydropyrrolo[3,4-d]pyrimidin-6-yl)methanone], the IC50 in assay [1] was 4730 nM.
`CC1c2cnc(-c3ncccn3)nc2CN1C(=O)c1n[nH]c2ccccc12` (stereo not shown) [Example 23, 1H-indazol-3-yl-(5-methyl-2-pyrimidin-2-yl-5,7-dihydropyrrolo[3,4-d]pyrimidin-6-yl)methanone]: the IC50 in assay [1] was 232 nM.
Still for that read-out and setting: under `CC1c2cnc(-c3ncccn3)nc2CN1C(=O)c1cnn2ccccc12` (stereo not shown) [Example 24, (5-Methyl-2-pyrimidin-2-yl-5,7-dihydropyrrolo[3,4-d]pyrimidin-6-yl)-pyrazolo[1,5-a]pyridin-3-yl-methanone] stands 156 nM; under `CC1c2cnc(-c3ncccn3)nc2CN1C(=O)c1ccc2ncsc2c1` (stereo not shown) [Example 25, 1,3-Benzothiazol-6-yl-(5-methyl-2-pyrimidin-2-yl-5,7-dihydropyrrolo[3,4-d]pyrimidin-6-yl)methanone], 29000 nM.
On the same count and under the same terms, the figure for `CC1c2cnc(-c3ncccn3)nc2CN1C(=O)c1cnc2ccccn12` (stereo not shown) [Example 26, Imidazo[1,2-a]pyridin-3-yl-(5-methyl-2-pyrimidin-2-yl-5,7-dihydropyrrolo[3,4-d]pyrimidin-6-yl)methanone] is 220 nM; for `CC1c2cnc(-c3ncccn3)nc2CN1C(=O)c1noc2ccccc12` (stereo not shown) [Example 27, 1,2-Benzoxazol-3-yl-(5-methyl-2-pyrimidin-2-yl-5,7-dihydropyrrolo[3,4-d]pyrimidin-6-yl)methanone] it is 620 nM; for `CC1c2cnc(-c3ncccn3)nc2CN1C(=O)c1nc2ccccc2s1` (stereo not shown) [Example 28, 1,3-Benzothiazol-2-yl-(5-methyl-2-pyrimidin-2-yl-5,7-dihydropyrrolo[3,4-d]pyrimidin-6-yl)methanone] it is 1790 nM.
On to `CC1c2cnc(-c3ncccn3)nc2CN1c1cc(F)cc(F)n1` (stereo not shown) [Example 31, 6-(4,6-difluoro-2-pyridyl)-5-methyl-2-pyrimidin-2-yl-5,7-dihydropyrrolo[3,4-d]pyrimidine], for which the IC50 in assay [1] came out at 659 nM.
Same read-out and setting: the figure for `CC1c2cnc(-c3ncccn3)nc2CN1c1cc(F)nc(F)c1` (stereo not shown) [Example 32, 6-(2,6-difluoro-4-pyridyl)-5-methyl-2-pyrimidin-2-yl-5,7-dihydropyrrolo[3,4-d]pyrimidine] is 2000 nM.
On the same count and under the same terms, under `COc1cc(F)nc(N2Cc3nc(-c4ccccn4)ncc3C2C)c1` (stereo not shown) [Example 33, 6-(6-Fluoro-4-methoxy-2-pyridyl)-5-methyl-2-(2-pyridyl)-5,7-dihydropyrrolo[3,4-d]pyrimidine] stands 127 nM; under `CC(=O)N1CCN(c2cc(F)cc(N3Cc4nc(-c5ncccn5)ncc4C3C)n2)CC1` (stereo not shown) [Example 34, 1-[4-[4-Fluoro-6-(5-Methyl-2-Pyrimidin-2-Yl-5,7-Dihydropyrrolo[3,4-d]Pyrimidin-6-Yl)-2-Pyridyl]Piperazin-1-Yl]Ethanone], 361 nM.
Take `CC1c2cnc(-c3ncccn3)nc2CN1c1cc(F)nc(N2CC3(COC3)C2)c1` (stereo not shown) [Example 35, 6-[6-Fluoro-4-(5-Methyl-2-Pyrimidin-2-Yl-5,7-Dihydropyrrolo[3,4-d]Pyrimidin-6-Yl)-2-Pyridyl]-2-Oxa-6-Azaspiro[3.3]Heptane]: the IC50 in assay [1] is 588 nM.
On the same count and under the same terms, under `CC1c2cnc(-c3ncccn3)nc2CN1c1cc(F)cc(N2CC3(COC3)C2)n1` (stereo not shown) [Example 36, 6-[4-Fluoro-6-(5-Methyl-2-Pyrimidin-2-Yl-5,7-Dihydropyrrolo[3,4-d]Pyrimidin-6-Yl)-2-Pyridyl]-2-Oxa-6-Azaspiro[3.3]Heptane] stands 865 nM.
Take `CNc1cc(F)nc(N2Cc3nc(-c4ncccn4)ncc3C2C)c1` (stereo not shown) [Example 37, 2-Fluoro-N-methyl-6-(5-methyl-2-pyrimidin-2-yl-5,7-dihydropyrrolo[3,4-d]pyrimidin-6-yl)pyridin-4-amine]: the IC50 in assay [1] turned out to be 55 nM.
The same measure, in the same setting: under `CC1c2cnc(-c3ncccn3)nc2CN1c1cc(N(C)C)cc(F)n1` (stereo not shown) [Example 38, 2-Fluoro-N,N-dimethyl-6-(5-methyl-2-pyrimidin-2-yl-5,7-dihydropyrrolo[3,4-d]pyrimidin-6-yl)pyridin-4-amine] stands 15 nM; under `CC1c2cnc(-c3ncccn3)nc2CN1c1cc(N2CCC2)cc(F)n1` (stereo not shown) [Example 39, 6-[4-(Azetidin-1-yl)-6-fluoro-2-pyridyl]-5-methyl-2-pyrimidin-2-yl-5,7-dihydropyrrolo[3,4-d]pyrimidine], 20 nM; under `CC1c2cnc(-c3ncccn3)nc2CN1c1cc(N2CCCC2)cc(F)n1` (stereo not shown) [Example 40, 6-(6-Fluoro-4-pyrrolidin-1-yl-2-pyridyl)-5-methyl-2-pyrimidin-2-yl-5,7-dihydropyrrolo[3,4-d]pyrimidine], 16 nM.
Same read-out and setting: under `CC1c2cnc(-c3ncccn3)nc2CN1c1cc(N2CCCCC2)cc(F)n1` (stereo not shown) [Example 41, 6-[6-Fluoro-4-(1-piperidyl)-2-pyridyl]-5-methyl-2-pyrimidin-2-yl-5,7-dihydropyrrolo[3,4-d]pyrimidine] stands 41 nM; under `CC1c2cnc(-c3ncccn3)nc2CN1c1cc(N2CCOCC2)cc(F)n1` (stereo not shown) [Example 42, 4-[2-Fluoro-6-(5-methyl-2-pyrimidin-2-yl-5,7-dihydropyrrolo[3,4-d]pyrimidin-6-yl)-4-pyridyl]morpholine], 40 nM; under `CC1c2cnc(-c3ncccn3)nc2CN1c1cc(N2CCNCC2)cc(F)n1` (stereo not shown) [Example 43, 6-(6-Fluoro-4-piperazin-1-yl-2-pyridyl)-5-methyl-2-pyrimidin-2-yl-5,7-dihydropyrrolo[3,4-d]pyrimidine], 4270 nM.
The same measure, in the same setting: under `CC1c2cnc(-c3ncccn3)nc2CN1c1cc(N2CCN(S(C)(=O)=O)CC2)cc(F)n1` (stereo not shown) [Example 44, 6-[6-Fluoro-4-(4-methylsulfonylpiperazin-1-yl)-2-pyridyl]-5-methyl-2-pyrimidin-2-yl-5,7-dihydropyrrolo[3,4-d]pyrimidine] stands 140 nM.
As for `CC1c2cnc(-c3ncccn3)nc2CN1c1cc(N2CCNC(=O)C2)cc(F)n1` (stereo not shown) [Example 45, 4-[2-Fluoro-6-(5-methyl-2-pyrimidin-2-yl-5,7-dihydropyrrolo[3,4-d]pyrimidin-6-yl)-4-pyridyl]piperazin-2-one], the IC50 in assay [1] was 160 nM.
